In ChEMBL document CHEMBL1201862, “PubChem BioAssay data set” (2004):
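Where inhibition never reached the appropriate level, the endpoint shown equals the highest concentration tested. Otherwise, values were interpolated linearly from a five-concentration, 48-hour dose response in 96-well plates. GI50: concentration for 50% inhibition of growth.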 Calls of active or inactive are those of the source. No stated cut-off is given here; in the data, active = GI50 up to about 1.1 µM and inactive = higher.

What was measured:
Assay in all cases: inhibition of tumour cell growth, NCI panel, 48 h
CAKI-1 = test system: CAKI-1
SK-MEL-2 = test system: SK-MEL-2
HT-29 = test system: HT-29
A498 = test system: A498
TK-10 = test system: TK-10
ACHN = test system: ACHN
SF-268 = test system: SF-268
RXF 393 = test system: RXF 393
A549 = test system: A549
MOLT-4 = test system: MOLT-4
UACC-257 = test system: UACC-257
OVCAR-5 = test system: OVCAR-5
SN12C = test system: SN12C
OVCAR-4 = test system: OVCAR-4
OVCAR-3 = test system: OVCAR-3
Malme-3M = test system: Malme-3M
M14 = test system: M14
NCI-H522 = test system: NCI-H522
NCI-H226 = test system: NCI-H226

| SMILES | GI50 (CAKI-1) | GI50 (SK-MEL-2) | GI50 (HT-29) | GI50 (A498) | GI50 (TK-10) | GI50 (ACHN) | GI50 (SF-268) | GI50 (RXF 393) | GI50 (A549) | GI50 (MOLT-4) | GI50 (UACC-257) | GI50 (OVCAR-5) | GI50 (SN12C) | GI50 (OVCAR-4) | GI50 (OVCAR-3) | GI50 (Malme-3M) | GI50 (M14) | GI50 (NCI-H522) | GI50 (NCI-H226) |
| --- | --- | --- | --- | --- | --- | --- | --- | --- | --- | --- | --- | --- | --- | --- | --- | --- | --- | --- | --- |
| Cc1c2c(cc3c1C(=O)C(=O)C1=C3OC[C@@H]1C)C(C)(C)CCC2 | 19.3 µM (inactive) | 6.15 µM (inactive) | 16.6 µM (inactive) | 22.3 µM (inactive) | 26.5 µM (inactive) | 16 µM (inactive) | 14.1 µM (inactive) | 17.9 µM (inactive) | 13 µM (inactive) | 12.4 µM (inactive) | 15.1 µM (inactive) | 21.5 µM (inactive) | 16.8 µM (inactive) | 17.9 µM (inactive) | 13.9 µM (inactive) | 15.6 µM (inactive) | 13.9 µM (inactive) | – | – |
| COc1ccc(OC)c(CCc2cc(OC)c(OC)cc2C)c1 | 52 µM (inactive) | 6.68 µM (inactive) | 28.4 µM (inactive) | > 100 µM (inactive) | 89.7 µM (inactive) | > 100 µM (inactive) | 42 µM (inactive) | – | 29.3 µM (inactive) | 12.1 µM (inactive) | 26.7 µM (inactive) | > 100 µM (inactive) | 81.3 µM (inactive) | 8.2 µM (inactive) | 3.05 µM (inactive) | 4.2 µM (inactive) | 4.26 µM (inactive) | 3.65 µM (inactive) | – |
| N#Cc1cccc(C2SCc3nc4ccccc4n32)c1 (stereo not given) | 32.4 µM (inactive) | > 100 µM (inactive) | > 100 µM (inactive) | 95.9 µM (inactive) | > 100 µM (inactive) | 74 µM (inactive) | > 100 µM (inactive) | 80.2 µM (inactive) | 92.7 µM (inactive) | 38.7 µM (inactive) | 80 µM (inactive) | 48 µM (inactive) | 75.9 µM (inactive) | 86.7 µM (inactive) | – | > 100 µM (inactive) | – | 69.3 µM (inactive) | 28.9 µM (inactive) |
| CCCCNC1CCCCC[C@H]1O (stereo not given in full) | > 100 µM (inactive) | > 100 µM (inactive) | > 100 µM (inactive) | – | > 100 µM (inactive) | > 100 µM (inactive) | > 100 µM (inactive) | > 100 µM (inactive) | > 100 µM (inactive) | > 100 µM (inactive) | > 100 µM (inactive) | > 100 µM (inactive) | > 100 µM (inactive) | > 100 µM (inactive) | > 100 µM (inactive) | – | > 100 µM (inactive) | > 100 µM (inactive) | > 100 µM (inactive) |
| CCC1C(=O)OCc2c1cc1n(c2=O)Cc2ccccc2-1 (stereo not given) | 34.2 µM (inactive) | > 100 µM (inactive) | > 100 µM (inactive) | > 100 µM (inactive) | > 100 µM (inactive) | > 100 µM (inactive) | > 100 µM (inactive) | > 100 µM (inactive) | > 100 µM (inactive) | > 100 µM (inactive) | > 100 µM (inactive) | > 100 µM (inactive) | > 100 µM (inactive) | > 100 µM (inactive) | > 100 µM (inactive) | > 100 µM (inactive) | > 100 µM (inactive) | – | > 100 µM (inactive) |
| COc1ccc(C2C(Cl)C(=O)N2n2cnc3ccccc3c2=O)cc1 (stereo not given) | 82.8 µM (inactive) | > 100 µM (inactive) | > 100 µM (inactive) | – | 98.6 µM (inactive) | 40.5 µM (inactive) | 87.9 µM (inactive) | 30.8 µM (inactive) | > 100 µM (inactive) | 51.3 µM (inactive) | > 100 µM (inactive) | > 100 µM (inactive) | > 100 µM (inactive) | 33.3 µM (inactive) | 85.7 µM (inactive) | > 100 µM (inactive) | 28.4 µM (inactive) | 89.3 µM (inactive) | > 100 µM (inactive) |
| O=Cn1c2ccccc2c2ccccc21 | – | > 100 µM (inactive) | – | > 100 µM (inactive) | > 100 µM (inactive) | > 100 µM (inactive) | > 100 µM (inactive) | > 100 µM (inactive) | > 100 µM (inactive) | > 100 µM (inactive) | > 100 µM (inactive) | > 100 µM (inactive) | > 100 µM (inactive) | – | > 100 µM (inactive) | > 100 µM (inactive) | > 100 µM (inactive) | > 100 µM (inactive) | – |
| O=c1onc2c3ccccc3ncn12 | > 100 µM (inactive) | > 100 µM (inactive) | > 100 µM (inactive) | > 100 µM (inactive) | > 100 µM (inactive) | > 100 µM (inactive) | > 100 µM (inactive) | > 100 µM (inactive) | > 100 µM (inactive) | > 100 µM (inactive) | > 100 µM (inactive) | > 100 µM (inactive) | > 100 µM (inactive) | > 100 µM (inactive) | > 100 µM (inactive) | – | > 100 µM (inactive) | > 100 µM (inactive) | > 100 µM (inactive) |
| NC(=O)NNC(=O)CCn1[nH]c(=O)c(Cl)c(Cl)c1=O | > 100 µM (inactive) | > 100 µM (inactive) | > 100 µM (inactive) | > 100 µM (inactive) | > 100 µM (inactive) | > 100 µM (inactive) | > 100 µM (inactive) | > 100 µM (inactive) | > 100 µM (inactive) | – | > 100 µM (inactive) | > 100 µM (inactive) | > 100 µM (inactive) | > 100 µM (inactive) | > 100 µM (inactive) | > 100 µM (inactive) | > 100 µM (inactive) | > 100 µM (inactive) | > 100 µM (inactive) |
| CC(C)NC(=O)OCc1nnn2c1C(OC(=O)NC(C)C)CC2 (stereo not given) | > 100 µM (inactive) | > 100 µM (inactive) | > 100 µM (inactive) | – | > 100 µM (inactive) | – | – | > 100 µM (inactive) | > 100 µM (inactive) | > 100 µM (inactive) | > 100 µM (inactive) | > 100 µM (inactive) | > 100 µM (inactive) | > 100 µM (inactive) | > 100 µM (inactive) | > 100 µM (inactive) | > 100 µM (inactive) | > 100 µM (inactive) | > 100 µM (inactive) |
| S=c1[nH]c(=S)c2nnn(-c3ccccc3)c2[nH]1 | > 100 µM (inactive) | > 100 µM (inactive) | > 100 µM (inactive) | – | > 100 µM (inactive) | > 100 µM (inactive) | > 100 µM (inactive) | > 100 µM (inactive) | > 100 µM (inactive) | > 100 µM (inactive) | > 100 µM (inactive) | > 100 µM (inactive) | > 100 µM (inactive) | – | > 100 µM (inactive) | > 100 µM (inactive) | > 100 µM (inactive) | > 100 µM (inactive) | > 100 µM (inactive) |
| C/C(=C\C(C)COCc1ccccc1)[C@H](COCc1ccccc1)OCc1ccccc1 (stereo not given in full) | – | > 100 µM (inactive) | > 100 µM (inactive) | > 100 µM (inactive) | > 100 µM (inactive) | > 100 µM (inactive) | 76.2 µM (inactive) | 26.9 µM (inactive) | > 100 µM (inactive) | 46.9 µM (inactive) | – | > 100 µM (inactive) | > 100 µM (inactive) | 63.2 µM (inactive) | > 100 µM (inactive) | – | > 100 µM (inactive) | 88.5 µM (inactive) | > 100 µM (inactive) |
| COC(=O)C(=O)C(/C(=N/N)C(=O)Nc1ccccc1C(N)=O)c1nc2ccc([N+](=O)[O-])cc2nc1O (stereo not given) | > 100 µM (inactive) | > 100 µM (inactive) | > 100 µM (inactive) | 1.01 µM (active) | > 100 µM (inactive) | > 100 µM (inactive) | > 100 µM (inactive) | – | > 100 µM (inactive) | > 100 µM (inactive) | > 100 µM (inactive) | > 100 µM (inactive) | > 100 µM (inactive) | > 100 µM (inactive) | > 100 µM (inactive) | > 100 µM (inactive) | > 100 µM (inactive) | > 100 µM (inactive) | 29.3 µM (inactive) |
| Nc1nc2c(ncn2CCOC(c2ccccc2)P(=O)(O)O)c(=O)[nH]1 (stereo not given) | > 100 µM (inactive) | > 100 µM (inactive) | > 100 µM (inactive) | > 100 µM (inactive) | > 100 µM (inactive) | > 100 µM (inactive) | > 100 µM (inactive) | > 100 µM (inactive) | > 100 µM (inactive) | – | > 100 µM (inactive) | > 100 µM (inactive) | > 100 µM (inactive) | – | > 100 µM (inactive) | > 100 µM (inactive) | – | > 100 µM (inactive) | > 100 µM (inactive) |
| COc1ccc(C2C3=C(CCCC3=O)N(c3ccccc3)C3=C2C(=O)CCC3)cc1 | > 100 µM (inactive) | – | > 100 µM (inactive) | > 100 µM (inactive) | > 100 µM (inactive) | > 100 µM (inactive) | 79.4 µM (inactive) | 19.5 µM (inactive) | > 100 µM (inactive) | > 100 µM (inactive) | – | > 100 µM (inactive) | > 100 µM (inactive) | 61.5 µM (inactive) | 89.7 µM (inactive) | – | > 100 µM (inactive) | – | 21.6 µM (inactive) |
| O=C1CCc2ccc(O)c(c2)Oc2ccc(cc2)[C@@H]2O[C@@H]2CO1 | 29.6 µM (inactive) | 34 µM (inactive) | 89.3 µM (inactive) | 29 µM (inactive) | 73.5 µM (inactive) | 61.8 µM (inactive) | > 10 µM (inactive) | – | 56.8 µM (inactive) | 23.9 µM (inactive) | 48.4 µM (inactive) | 54.2 µM (inactive) | 62.4 µM (inactive) | 41 µM (inactive) | 32.8 µM (inactive) | 22.2 µM (inactive) | 41.6 µM (inactive) | – | 40.5 µM (inactive) |
